The results in this text go back to ChEMBL document CHEMBL6127044, “An insight into G-quadruplexes: Identification and potential therapeutic targets in livestock viruses” (Eur J Med Chem, 2024).

For series [1], the system named is Vero. Briefly: Cytotoxicity against African green monkey Vero cells at 50 uM incubated for 24 hrs by MTT assay relative to control. The class given is toxicity, cell-based. Particulars: chlorocebus sabaeus. A general note: Tetrazolium assays rely on reduction of a dye to a coloured formazan, in cell work by metabolically active cells.
Series [2] relates to Porcine epidemic diarrhea virus. Briefly: Antiviral activity against Porcine epidemic diarrhea virus infected in African green monkey Vero E6 cells assessed as inhibition of viral replication at 25 uM relative to control. The class given is functional. Particulars: Vero C1008.

`C[n+]1cc(NC(=O)c2ccc3ccc4ccc(C(=O)Nc5cc6ccccc6[n+](C)c5)nc4c3n2)cc2ccccc21` came in with an Activity in series [1] of 80%.

The inhibition is the drop in the measured response relative to a control, in per cent. In series [1], `NCCOc1cc(C(=O)Nc2cc(OCCN)c3ccccc3n2)nc(C(=O)Nc2cc(OCCN)c3ccccc3n2)c1` [PYRIDOSTATIN] had an Activity of 80%. Moreover, the inhibition at 25 µM in series [2] came to 99%.

Turning to `C[n+]1ccc(-c2c3nc(c(-c4cc[n+](C)cc4)c4ccc([nH]4)c(-c4cc[n+](C)cc4)c4nc(c(-c5cc[n+](C)cc5)c5ccc2[nH]5)C=C4)C=C3)cc1` [TMPYP4 CHLORIDE], the inhibition at 25 µM in series [2] amounted to 99%.
